Where two headings read alike, the source gives them in different places.
Key:
[1] = system: patients with chronic non-cancer pain and OIC; experiment: SBM responder, phase 2b study 1107 V9221 (observed and PK/Efficacy logistic model); format: in vivo, human; settings: for SBM responder, Observation / SBM responder, Prediction: 1107V9221 (Phase 2b); for SBM Non_Responder frequency / SBM Responder frequency: PK/efficacy population, 1107 V9221 (Phase 2b); for Predicted probability of SBM responder: Phase 2b model
Text: (§1) Exposure-response analysis was used to evaluate the efficacy and safety data of the phase 2b and phase 3 studies ([2],[5]). The PK/Efficacy analysis included the subjects of the population PK analysis or in the placebo group, who also had efficacy data for the exposure-response analysis obtained from phase 2b and phase 3 studies (1107 V9221, 1314 V9231, and 1315 V9232). The PK/Safety analysis included the subjects of the population PK analysis or in the placebo group, who also had safety data for exposure-response analysis obtained from phase 2b and phase 3 studies (1107 V9221, 1314 V9231, and 1315 V9232).
(§2) The following efficacy variables were used to evaluate the exposure-response relationship. […] In the phase 3 studies (Study No. 1314 V9231 and 1315 V9232), an SBM responder was defined as having 9 positive response weeks or more out of the 12-weeks treatment period and 3 positive response weeks out of the last 4 weeks of the 12-weeks treatment period. A positive response week was defined as a week with both ≥3 SBMs and an increase of ≥1 SBM from the baseline. A subject with any insufficient response data was treated as a “non-responder”. The occurrence of treatment-emergent adverse events of gastrointestinal disorders as system organ class, which was the most frequently occurring type, was defined by the severity and assessed as safety variables.
(§3) No covariate was tested in the exposure-response analysis because no prognostic factors of the efficacy or safety were identified in the phase 2b and phase 3 studies ([2],[5]). Efficacy and safety data in Study No. 1314 V9231 and 1315 V9232 were combined because these studies were conducted as pivotal phase 3 studies using the same study design and were of the same treatment duration. The individual AUCss values for naldemedine were estimated by empirical Bayes estimation based on the population PK model. AUCss values of the subjects in the placebo group were treated as zero (0). For efficacy (responder or non-responder) and safety (occurrence of gastrointestinal disorders or not) variables, relationships to PK parameters were examined using the logistic model as shown in Eq. (3) with SAS (Version 9.2, SAS Institute).3 Probabilityefficacy or safety event=1/1+exp−a−b×PKparameter where a and b are the parameters to be estimated.

[2] = system: patients with chronic non-cancer pain and OIC; design: method as in PMID 28371937; settings: Study 1107 V9221 (Phase 2b), cited from earlier work
[3] = system: patients with chronic non-cancer pain and OIC; experiment: SBM responder, phase 3 studies 1314 V9231 and 1315 V9232 (observed and PK/Efficacy logistic model); format: in vivo, human; settings: for Predicted probability of SBM responder: Phase 3 model
Text: as §1, §2, §3

[4] = design: method as in earlier work; settings: oral 2 mg [14C]-labeled naldemedine; cited from earlier work
[5] = 1314V9231 and 1315V9232 (Phase 3), 0.2 mg
[6] = PK/efficacy population, 1314 V9231 and 1315 V9232 (Phase 3), 0.2 mg

Structure (SMILES): CC(C)(NC(=O)C1=C(O)[C@@H]2Oc3c(O)ccc4c3[C@@]23CCN(CC2CC2)[C@H](C4)[C@]3(O)C1)c1nc(-c2ccccc2)no1 [naldemedine]
- predicted probability of SBM responders ([1]; 0.2 mg, phase 2b study 1107 V9221): 52.7%
- SBM responder, Observation ([1]; 0.1 mg): 55.6
- SBM responder, Prediction ([1]; 0.1 mg): 47.4
- SBM responder, Observation ([1]; 0.2 mg): 66.7
- SBM responder, Prediction ([1]; 0.2 mg): 52.7
- SBM responder, Observation ([1]; 0.4 mg): 60.0
- SBM responder, Prediction ([1]; 0.4 mg): 63.0
- SBM Non_Responder frequency ([1]; 0.1 mg): 4 (44.4) Count (Percent)
- SBM Responder frequency ([1]; 0.1 mg): 5 (55.6) Count (Percent)
- SBM Non_Responder frequency ([1]; 0.2 mg): 3 (33.3) Count (Percent)
- SBM Responder frequency ([1]; 0.2 mg): 6 (66.7) Count (Percent)
- SBM Non_Responder frequency ([1]; 0.4 mg): 4 (40.0) Count (Percent)
- SBM Responder frequency ([1]; 0.4 mg): 6 (60.0) Count (Percent)
- Predicted probability of SBM responder ([1]; Dose: 0.1 mg): 0.474
- Predicted probability of SBM responder ([1]; Dose: 0.2 mg): 0.527
- Predicted probability of SBM responder ([1]; Dose: 0.4 mg): 0.630
- proportion of SBM responders ([2]; 0.1 mg): 52.5%
- proportion of SBM responders ([2]; 0.2 mg): 71.2%
- proportion of SBM responders ([2]; 0.4 mg): 66.7%
- predicted probability of SBM responders ([3]; 0.2 mg once daily, phase 2b and phase 3 studies): approximately 50%
- predicted probability of SBM responders ([3]; 0.2 mg, phase 3 studies 1314 V9231 and 1315 V9232): 49.9%
- SBM responder, Observation [3, 5]: 53.3
- SBM responder, Prediction [3, 5]: 49.9
- SBM Non_Responder frequency [3, 6]: 208 (46.7) Count (Percent)
- SBM Responder frequency [3, 6]: 237 (53.3) Count (Percent)
- Predicted probability of SBM responder ([3]; Dose: 0.1 mg): 0.433
- Predicted probability of SBM responder ([3]; Dose: 0.2 mg): 0.499
- Predicted probability of SBM responder ([3]; Dose: 0.4 mg): 0.630
- total radioactivity excreted in feces [4]: 35 % of the administered dose
- total radioactivity excreted in urine [4]: 57 % of the administered dose
